Test results as given in ChEMBL document CHEMBL1201862, “PubChem BioAssay data set” (2004).
The source made the active and inactive calls.

Assays:
[1] = test system: P388; test: cells; type: functional
[2] = test system: P388/ADR; test: cells; type: functional; details: Mus musculus
[3] = test system: SN12K1; test: cells; type: functional
[4] = HepG2 cell cytotoxicity, dose response, cytotoxicity control for Shn3 inhibitor project, CellTiter-Glo, cherry-picked (AID 624134); type: functional, cell-based
[5] = Shn3 3'UTR reporter inhibitors, dose response, cell-based, Clone20 osteoblasts, firefly luciferase, cherry-picked (AID 624132); type: functional;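 note: firefly luciferase luminescence from reporter carrying the Shn3 3'UTR in osteoblasts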
[6] = control 3'UTR Renilla luciferase suppression, dose response, counter-screen for Shn3 inhibitor project, cell-based, Clone20-Shn3RL, cherry-picked (AID 624133); type: functional
[7] = target: FAD-linked sulfhydryl oxidase ALR (Homo sapiens, UniProt P55789); test: inhibitors of human ALR sulfhydryl oxidase, dose response, biochemical, H2O2 detection, luminescence, cherry-pick (AID 493248)
[8] = test system: INS1; test: beta cell apoptosis inhibitors, cytokine rescue, dose response, luminescence, retest (AID 449756); type: functional, cell-based; details: Rattus norvegicus;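 note: cell death triggered by IL-1 beta plus TNF-alpha plus IFN-gamma mixture; protective hits raise ATP signal compared with cytokine alone wells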
[9] = test system: H9c2; test: cells; type: functional, cell-based; details: Rattus norvegicus, H9c2, Myocardium;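 note: confirmatory concentration-response retest of ultra-high-throughput screening hits for modulation of myocardial damage; cell death induced by hydrogen peroxide oxidative stress; compound pretreatment for 60 min then peroxide exposure for 2 h; potency is for protecting the cells against peroxide damage rather than for killing them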
[10] = target: T1, Rac GTPase-activating protein 1 (Homo sapiens, UniProt Q9H0H5); test: MgcRacGAP GTPase-activating activity inhibitors, confirmation, biochemical, ADP Hunter fluorescence, primary and confirmatory (AID 624330); type: functional
T1 sequence (Q9H0H5 whole entry): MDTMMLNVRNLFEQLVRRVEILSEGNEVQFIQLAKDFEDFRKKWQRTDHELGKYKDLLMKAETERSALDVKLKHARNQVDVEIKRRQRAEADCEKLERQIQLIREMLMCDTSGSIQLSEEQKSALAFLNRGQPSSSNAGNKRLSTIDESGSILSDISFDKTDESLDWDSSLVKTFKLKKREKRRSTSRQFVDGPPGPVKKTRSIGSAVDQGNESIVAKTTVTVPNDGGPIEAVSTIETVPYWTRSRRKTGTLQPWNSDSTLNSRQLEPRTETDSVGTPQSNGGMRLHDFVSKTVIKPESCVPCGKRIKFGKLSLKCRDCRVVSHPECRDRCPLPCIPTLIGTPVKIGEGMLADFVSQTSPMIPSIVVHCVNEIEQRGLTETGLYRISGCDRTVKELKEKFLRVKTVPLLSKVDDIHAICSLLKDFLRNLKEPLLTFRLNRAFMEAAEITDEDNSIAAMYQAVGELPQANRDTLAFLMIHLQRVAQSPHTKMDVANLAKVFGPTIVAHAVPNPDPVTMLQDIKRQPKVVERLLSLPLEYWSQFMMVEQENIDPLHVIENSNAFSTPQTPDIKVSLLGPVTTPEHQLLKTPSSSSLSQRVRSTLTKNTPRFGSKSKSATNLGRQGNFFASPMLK

[11] = target: T2, Short transient receptor potential channel 4 (Mus musculus, UniProt Q9QUQ5); test: mouse TRPC4 channel activators, dose response, cell-based, HEK293 TRPC4/mu-opioid, Fluo-4 calcium (AID 434937); type: functional
T2 sequence (Q9QUQ5 whole entry): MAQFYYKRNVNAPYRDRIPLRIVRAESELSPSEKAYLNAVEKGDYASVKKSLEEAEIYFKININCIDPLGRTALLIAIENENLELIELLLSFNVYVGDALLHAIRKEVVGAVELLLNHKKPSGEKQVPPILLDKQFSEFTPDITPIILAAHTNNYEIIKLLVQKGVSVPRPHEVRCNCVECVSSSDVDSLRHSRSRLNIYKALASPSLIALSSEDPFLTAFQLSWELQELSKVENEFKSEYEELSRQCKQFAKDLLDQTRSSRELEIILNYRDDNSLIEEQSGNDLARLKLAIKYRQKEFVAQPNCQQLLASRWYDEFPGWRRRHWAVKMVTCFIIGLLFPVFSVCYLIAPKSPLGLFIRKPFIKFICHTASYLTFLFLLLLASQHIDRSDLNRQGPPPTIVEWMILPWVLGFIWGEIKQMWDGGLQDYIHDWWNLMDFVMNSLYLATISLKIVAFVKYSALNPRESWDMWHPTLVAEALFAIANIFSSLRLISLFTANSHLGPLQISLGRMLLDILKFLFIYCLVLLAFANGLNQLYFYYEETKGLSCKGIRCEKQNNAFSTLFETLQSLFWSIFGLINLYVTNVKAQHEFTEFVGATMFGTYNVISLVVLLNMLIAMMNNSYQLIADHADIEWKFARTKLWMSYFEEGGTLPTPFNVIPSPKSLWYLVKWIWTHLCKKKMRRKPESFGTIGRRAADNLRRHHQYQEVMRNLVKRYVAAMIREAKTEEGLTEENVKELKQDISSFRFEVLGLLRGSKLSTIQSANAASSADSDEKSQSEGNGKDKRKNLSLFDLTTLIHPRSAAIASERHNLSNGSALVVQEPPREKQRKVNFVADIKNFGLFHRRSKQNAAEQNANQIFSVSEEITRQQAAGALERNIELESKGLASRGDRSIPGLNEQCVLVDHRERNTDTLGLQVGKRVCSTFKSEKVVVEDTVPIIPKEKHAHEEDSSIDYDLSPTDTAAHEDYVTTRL

[12] = cells; type: functional
[13] = C. albicans growth with fluconazole, confirmation, fluorescence, retest (AID 2467); type: functional, cell-based
[14] = Luminescence Cell-Based Dose Response HTS to Identify Inhibitors of 5'UTR Stem-Loop Driven Prion Protein mRNA Translation in H4 Neuroglioblastoma Cells. [Related pubchem assays: 1827 (Project Summary), 1813 (Primary HTS)]; type: functional
[15] = inhibitors of SNCA 5'UTR-driven reporter translation, confirmation, H4 neuroglioma cells, luminescence (AID 1988); type: functional, cell-based
[16] = Luminescence Cell-Based Dose Retest to Confirm Inhibitors of Cancer Stem Cells. [Related pubchem assays (depositor defined):AID2717, AID2721]; type: functional; details: Homo sapiens
[17] = inhibitors of firefly luciferase expression or activity, dose response, H4 neuroglioma cells, luminescence (AID 1990); type: functional, cell-based

FAD-linked sulfhydryl oxidase ALR, sequence (P55789 whole entry): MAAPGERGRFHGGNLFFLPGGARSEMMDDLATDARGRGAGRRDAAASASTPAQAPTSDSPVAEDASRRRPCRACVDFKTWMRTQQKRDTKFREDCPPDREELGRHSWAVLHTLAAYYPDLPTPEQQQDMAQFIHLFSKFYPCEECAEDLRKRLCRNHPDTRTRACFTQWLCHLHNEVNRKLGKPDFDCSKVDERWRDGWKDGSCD

CCN(CC)CCCOC(=O)/C=C/c1c(C)[nH]c(=O)[nH]c1=O
GI50 ([1]; Mus musculus, P388): > 625 µM (inactive) | GI50 [2]: 426 µM (inactive) | GI50 ([3]; Homo sapiens, SN12K1): > 625 µM (inactive)

Cc1ccc(CNc2nc(NCC3CC3)nc3ccsc23)c(C)c1
AC50 [4]: 40.4 µM (active) | AC50 [5]: 3.95 µM (active) | AC50 [6]: 6.26 µM (active)

Cc1nn(-c2ccccc2)c(C)c1-c1cc(C(=O)N/N=C/c2ccc(O)cc2)[nH]n1
AC50 [7]: 4.12 µM (active)

CC(C)Oc1ccc(S(=O)(=O)N2CCCCC2)cc1NC(=O)CN1CCCC1c1cccs1 (stereo unspecified)
AC50 [4]: > 70 µM (inactive) | AC50 [5]: 7.88 µM (active) | AC50 [6]: 20.6 µM (active) | AC50 [8]: 5.76 µM (active)

COc1cccc(C(c2nnnn2Cc2ccccc2)N2CCN(C3CCCC3)CC2)c1OC (stereo unspecified)
IC50 [9]: > 79 µM (inactive)

O=C(Nc1nc(-c2ccccn2)cs1)c1cccc(S(=O)(=O)N2CCOCC2)c1
AC50 [4]: 5.28 µM (active) | AC50 [5]: 1.52 µM (active) | AC50 [6]: 2.89 µM (active) | IC50 [9]: 21 µM (active)

Cc1nc(Cc2nnc(SCC(=O)N3CCN(c4ccc(O)cc4)CC3)o2)cs1
IC50 [10]: 30 µM (active)

c1ccc(CNc2ccc3c(c2)ncn3C2CCCCC2)nc1
AC50 [7]: 1.2 µM (active)

CC1Cc2ccccc2N1C(=O)COC(=O)c1nnc(O)c2ccccc12 (stereo unspecified)
IC50 [9]: > 79 µM (inactive)

COc1cccc2c1C(=N)c1c(O)c3c(c(O)c1C2=O)C[C@@](O)(C(C)=O)C[C@@H]3OC1CC(N)C(O)C(C)O1 (stereo partly specified)
GI50 ([1]; Mus musculus, P388): 0.000159 µM (active) | GI50 [2]: 0.000673 µM (active) | GI50 ([3]; Homo sapiens, SN12K1): 0.124 µM (active)

COc1ccc(C(CNC(=O)c2ccc3c(c2)OCCO3)N(C)C)cc1 (stereo unspecified)
EC50 [11]: 0.237 µM (active)

O=S(=O)(c1ccc2ccccc2c1)N1CCN=C1SCc1cccnc1
AC50 [7]: 0.072 µM (active)

NC(=O)c1ccc(CSc2nc3ccccc3s2)cc1
AC50 [7]: 0.73 µM (active)

CC(=O)C(=O)NC1/C=C(C)\C=C/C(O)C/C=C(C)\C=C/C(O)CC2OC(=O)C1(C)C(=O)C2C (stereo unspecified)
GI50 ([1]; Mus musculus, P388): 10.4 µM (inactive) | GI50 [2]: 28.4 µM (inactive) | GI50 ([3]; Homo sapiens, SN12K1): > 100 µM (inactive)

O=C(NCCCCCCNC(=O)n1cc(F)c(=O)[nH]c1=O)NCCCOCCOCCOCCOCCOCCOCCOCCOCCOCCOCCOCCOCCOCCOCCOCCOCCOCCOCCOCCOCCOCCCNC(=O)C(O)C(O)C(OC1OC(CO)C(O)C(O)C1O)C(O)CO (stereo unspecified)
GI50 ([1]; Mus musculus, P388): 0.566 µM (active) | GI50 [2]: 0.43 µM (active) | GI50 ([3]; Homo sapiens, SN12K1): 6.46 µM (inactive)

Cc1c(/C=N/NC(=O)c2ccc(O)cc2)c2ccccn2c1C(=O)c1ccc(F)cc1
IC50 [9]: > 79 µM (inactive)

O=C(COc1cccc2c1CCNC2=O)NC1CCCCC1
IC50 [9]: > 79 µM (inactive)

COc1cccc(CN(C)C(=O)c2cccc(S(=O)(=O)N3CCN(Cc4ccccc4)CC3)c2)c1OC
AC50 [4]: 63.3 µM (active) | AC50 [5]: 4.94 µM (active) | AC50 [6]: 8.32 µM (active)

COc1ccc(C(=O)Nc2nc(-c3ccccn3)cs2)cc1S(=O)(=O)N1CCOCC1
IC50 [9]: 10.9 µM (active)

CCOC(=O)C(C)Oc1ccc(OCc2ccccc2)cc1 (stereo unspecified)
IC50 [12]: 6.32 µM (active)

CC(C)NC(=O)COC(=O)Cn1[nH]c(=O)c2ccccc2c1=O
IC50 [9]: 16.4 µM (active)

CC1(C)CC2C1CCC1(O)CC2(C)CCC1N(O)c1ccc(C(=O)NCCO)cn1 (stereo unspecified)
IC50 [9]: > 79 µM (inactive)

CC(C)[C@](O)(C(=O)OCC1=CC[N+]2([O-])CC[C@@H](O)[C@@H]12)[C@H](C)O (stereo partly specified) [INDICINE N-OXIDE]
GI50 ([1]; Mus musculus, P388): 6490 µM (inactive) | GI50 [2]: > 8990 µM (inactive) | GI50 ([3]; Homo sapiens, SN12K1): > 10000 µM (inactive)

O=C(COc1ccccc1)Nc1nnc(-c2ccc3c(c2)CCCC3)o1
IC50 [12]: 10.3 µM (active) | EC50 [13]: 0.499 µM (active)

COc1cc(O)c(Cc2ccccc2O)c(O)c1C(=O)CCc1ccccc1 [UVARETIN]
GI50 ([1]; Mus musculus, P388): 4.37 µM (inactive) | GI50 [2]: 5.38 µM (inactive) | GI50 ([3]; Homo sapiens, SN12K1): 5.55 µM (inactive)

O=S(=O)(CCBr)CCBr
GI50 ([1]; Mus musculus, P388): 2.13 µM (inactive) | GI50 [2]: 2.84 µM (inactive) | GI50 ([3]; Homo sapiens, SN12K1): 6.59 µM (inactive)

C=C1CC(OC)(C(OC)C(=O)N(C)[C@H]2OCO[C@H]3C2O[C@H](C[C@@H](COC)OC)C(C)(C)C3OC)O[C@H](C)[C@@H]1C (stereo partly specified)
GI50 ([1]; Mus musculus, P388): 3.58 µM (inactive) | GI50 [2]: 5.58 µM (inactive) | GI50 ([3]; Homo sapiens, SN12K1): 10.9 µM (inactive)

COc1cc(NC(=O)C(c2ccccc2)c2ccccc2)c(C(=O)O)cc1OC
AC50 [7]: 10.2 µM (active)

COc1ccc(OC)c(/C=N/NC(=O)c2cc3c(OC)c(OC)ccc3[nH]2)c1
IC50 [9]: > 79 µM (inactive)

CCN1CCN(c2ccc(S(=O)(=O)N3CCCCC3)cc2NC(=O)c2cccc(Cl)c2)CC1
EC50 [11]: 3.76 µM (active)

Clc1cccc(CNCCNCc2cccc(Cl)c2)c1
IC50 [12]: 20.5 µM (active)

CSc1nc(NC2OC(CO)C(O)C(O)C2O)c(N)c(=O)n1C (stereo unspecified)
GI50 ([1]; Mus musculus, P388): > 100 µM (inactive) | GI50 [2]: > 100 µM (inactive) | GI50 ([3]; Homo sapiens, SN12K1): > 100 µM (inactive)

CC1Cc2ccccc2C(=O)N1 (stereo unspecified)
IC50 [9]: 12.5 µM (active)

C[n+]1ccc(Nc2ccc(NC(=O)c3ccc(Nc4cc[n+](C)c5ccc([N+](=O)[O-])cc45)cc3[N+](=O)[O-])cc2)cc1
GI50 [1]: 0.617 µM (active) | GI50 [3]: 23.4 µM (inactive)

O=C(N/N=C/C(Br)=C/c1ccccc1)c1cnccn1
IC50 [12]: 31.1 µM (active)

Sc1nnc(-c2ccc3ccccc3n2)o1
AC50 [7]: 0.01 µM (active)

COc1ccc(C(CNCC(O)COc2c(C)ccc(C)c2C)N(C)C)cc1 (stereo unspecified)
EC50 [11]: 1.19 µM (active)

CSc1ccc(CN2CCC(C(=O)NCc3ccc(C)cc3)CC2)cc1
IC50 [10]: 108 µM (active)

Cc1ccccc1OCCn1c(S)nc2c(N)ncnc21
IC50 [10]: 41.6 µM (active)

O=C(COc1cccc(F)c1)Nc1nc(-c2ccccn2)cs1
IC50 [9]: > 79 µM (inactive)

COc1cc(/C=C/C(=O)OCC(=O)Nc2ccc3c(c2)OCO3)ccc1O
IC50 [10]: 48.2 µM (active)

c1ccc2sc(N3CCNCC3)nc2c1
EC50 [11]: 0.473 µM (active)

COc1ccc(CNCCC(c2ccc(OC(C)C)cc2)c2ccccc2OC)cc1 (stereo unspecified)
AC50 [4]: 13.3 µM (active) | AC50 [5]: 3.86 µM (active) | EC50 [14]: 113 µM (active) | EC50 [15]: 8.9 µM (active) | AC50 [6]: 20.9 µM (active) | AC50 [8]: 7.26 µM (active) | AC50 [16]: 5.81 µM (active) | EC50 [17]: 11.4 µM (active)

O=C(NCc1cccnc1)C1CCCN(Cc2cnn(-c3ccccc3)c2-n2cccc2)C1 (stereo unspecified)
EC50 [11]: 1.68 µM (active)
